Source: ChEMBL document CHEMBL2040715, “Discovery of a Potent HIV Integrase Inhibitor that Leads to a Prodrug with Significant anti-HIV Activity” (ACS Med Chem Lett, 2011)

Legend:
Assay type in all cases: ADME, Microsome
[1] = target: T1, UDP-glucuronosyltransferase 1A6 (Homo sapiens, UniProt P19224); assay: Activity at UGT1A6 in human liver microsomes at 50 uM incubated for 3 mins prior to NADPH-addition measured up to 120 mins by HPLC/UV analysis
T1 sequence (P19224 whole entry): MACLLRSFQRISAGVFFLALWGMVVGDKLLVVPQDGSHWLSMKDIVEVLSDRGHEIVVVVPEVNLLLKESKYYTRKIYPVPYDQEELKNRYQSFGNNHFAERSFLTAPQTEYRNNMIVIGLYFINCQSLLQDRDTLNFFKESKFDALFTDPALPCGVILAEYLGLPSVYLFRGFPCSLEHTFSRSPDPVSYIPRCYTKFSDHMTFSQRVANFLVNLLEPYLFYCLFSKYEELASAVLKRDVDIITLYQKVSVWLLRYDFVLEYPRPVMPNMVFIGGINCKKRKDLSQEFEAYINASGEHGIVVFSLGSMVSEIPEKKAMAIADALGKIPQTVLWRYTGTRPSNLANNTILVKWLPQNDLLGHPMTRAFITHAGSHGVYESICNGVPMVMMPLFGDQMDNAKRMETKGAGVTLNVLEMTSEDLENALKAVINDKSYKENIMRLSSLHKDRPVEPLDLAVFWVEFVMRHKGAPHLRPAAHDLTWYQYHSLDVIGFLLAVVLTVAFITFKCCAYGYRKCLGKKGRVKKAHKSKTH

[2] = target: T2, UDP-glucuronosyltransferase 2B7 (Homo sapiens, UniProt P16662); assay: Activity at UGT2B7 in human liver microsomes at 50 uM incubated for 3 mins prior to NADPH-addition measured up to 120 mins by HPLC/UV analysis
T2 sequence (P16662 whole entry): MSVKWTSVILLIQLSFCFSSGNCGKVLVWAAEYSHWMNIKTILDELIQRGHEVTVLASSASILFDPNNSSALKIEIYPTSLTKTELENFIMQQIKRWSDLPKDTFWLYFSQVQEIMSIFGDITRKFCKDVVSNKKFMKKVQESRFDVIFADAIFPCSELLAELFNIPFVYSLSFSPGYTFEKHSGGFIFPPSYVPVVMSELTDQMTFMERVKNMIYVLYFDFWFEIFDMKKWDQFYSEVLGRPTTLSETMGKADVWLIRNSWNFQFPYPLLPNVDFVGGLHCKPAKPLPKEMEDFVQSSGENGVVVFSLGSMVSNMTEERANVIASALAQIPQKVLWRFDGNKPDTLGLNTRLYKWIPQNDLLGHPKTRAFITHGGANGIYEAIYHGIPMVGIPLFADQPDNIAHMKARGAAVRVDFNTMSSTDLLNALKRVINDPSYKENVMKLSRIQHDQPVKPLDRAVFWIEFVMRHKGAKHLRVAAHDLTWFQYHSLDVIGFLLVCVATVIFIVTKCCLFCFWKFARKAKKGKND

[3] = target: T3, UDP-glucuronosyltransferase 1A9 (Homo sapiens, UniProt O60656); assay: Activity at UGT1A9 in human liver microsomes at 50 uM incubated for 3 mins prior to NADPH-addition measured up to 120 mins by HPLC/UV analysis
T3 sequence (O60656 whole entry): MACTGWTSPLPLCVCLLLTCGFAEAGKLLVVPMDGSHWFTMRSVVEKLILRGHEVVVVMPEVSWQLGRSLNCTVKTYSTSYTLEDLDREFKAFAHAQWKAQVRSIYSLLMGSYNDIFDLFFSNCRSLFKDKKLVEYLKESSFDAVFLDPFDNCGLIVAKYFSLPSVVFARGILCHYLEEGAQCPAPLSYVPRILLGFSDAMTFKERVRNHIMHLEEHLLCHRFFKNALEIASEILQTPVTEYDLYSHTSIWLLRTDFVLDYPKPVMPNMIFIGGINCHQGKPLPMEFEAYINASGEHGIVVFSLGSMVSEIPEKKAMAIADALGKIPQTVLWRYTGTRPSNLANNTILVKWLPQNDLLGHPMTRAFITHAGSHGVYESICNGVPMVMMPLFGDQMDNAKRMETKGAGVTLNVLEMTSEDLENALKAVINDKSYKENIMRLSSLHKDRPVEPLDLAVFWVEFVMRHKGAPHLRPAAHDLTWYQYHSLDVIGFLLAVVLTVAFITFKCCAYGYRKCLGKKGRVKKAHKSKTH

Cytochrome P450 2C8 = target: T4, Cytochrome P450 2C8 (Homo sapiens, UniProt P10632); assay: Activation of CYP2C8 in human liver microsomes incubated for 3 mins prior to NAPDH-addition measured after 30 mins by RP-HPLC analysis; details: 0.5 h
T4 sequence (P10632 whole entry): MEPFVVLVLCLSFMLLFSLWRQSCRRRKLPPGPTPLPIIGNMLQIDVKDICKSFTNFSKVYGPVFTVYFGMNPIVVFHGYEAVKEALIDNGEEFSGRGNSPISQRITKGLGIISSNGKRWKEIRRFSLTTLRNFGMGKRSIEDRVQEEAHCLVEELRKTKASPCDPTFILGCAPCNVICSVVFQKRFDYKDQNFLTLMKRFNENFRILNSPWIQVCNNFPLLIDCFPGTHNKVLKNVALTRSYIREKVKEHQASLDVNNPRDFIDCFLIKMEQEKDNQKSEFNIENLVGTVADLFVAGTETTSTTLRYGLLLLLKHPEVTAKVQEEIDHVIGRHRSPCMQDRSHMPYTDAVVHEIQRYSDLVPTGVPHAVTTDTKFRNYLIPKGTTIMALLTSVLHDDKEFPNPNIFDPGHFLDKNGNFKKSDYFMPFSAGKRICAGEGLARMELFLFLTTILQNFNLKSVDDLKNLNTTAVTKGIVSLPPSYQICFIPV

[4] = target: T5, UDP-glucuronosyltransferase 1A1 (Homo sapiens, UniProt P22309); assay: Activity at UGT1A1 in human liver microsomes at 50 uM incubated for 3 mins prior to NADPH-addition measured up to 120 mins by HPLC/UV analysis
T5 sequence (P22309 whole entry): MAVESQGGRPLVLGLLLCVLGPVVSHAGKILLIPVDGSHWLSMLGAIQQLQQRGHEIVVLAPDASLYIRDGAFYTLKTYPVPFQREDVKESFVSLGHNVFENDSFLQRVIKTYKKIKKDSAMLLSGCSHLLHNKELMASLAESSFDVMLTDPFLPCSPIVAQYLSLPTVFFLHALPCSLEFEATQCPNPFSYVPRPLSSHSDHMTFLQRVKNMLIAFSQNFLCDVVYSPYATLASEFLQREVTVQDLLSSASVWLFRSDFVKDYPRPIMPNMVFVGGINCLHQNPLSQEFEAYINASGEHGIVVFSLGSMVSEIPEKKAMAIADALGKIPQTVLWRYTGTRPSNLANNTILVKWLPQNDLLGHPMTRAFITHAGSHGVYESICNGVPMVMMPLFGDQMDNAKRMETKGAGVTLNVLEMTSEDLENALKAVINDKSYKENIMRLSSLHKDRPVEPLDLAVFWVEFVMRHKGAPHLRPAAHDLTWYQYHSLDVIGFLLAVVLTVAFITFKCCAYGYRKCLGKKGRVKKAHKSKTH

Measured: Activity

O=C(O)/C(O)=C/C(=O)c1cc(Cc2ccc(F)cc2F)cn(Cc2ccccc2F)c1=O
Not Active: [1] | [2] | [3] | Cytochrome P450 2C8 | [4]
